Source: ChEMBL document CHEMBL1128148, “Molecular design of novel PGI2 agonists without PG skeleton. III” (Bioorg Med Chem Lett, 1995)

Assays:
Prostacyclin receptor [1] = target: T1, Prostacyclin receptor (Homo sapiens, UniProt P43119); test: Compound was tested for prostacyclin (PGI-2) binding by displacement of [3H]iloprost from human platelets.; details: concentration not given here
Prostacyclin receptor [2] = target: T1, Prostacyclin receptor; test: Compound was tested for prostacyclin (PGI-2) binding by displacement of [3H]iloprost from human platelets using conventional ligand binding assay
Homo sapiens = organism: Homo sapiens; test: Compound was tested for the inhibition of 4 uM ADP-induced platelet aggregation by using human platelet rich plasma; assay type: functional

T1 sequence (P43119 whole entry): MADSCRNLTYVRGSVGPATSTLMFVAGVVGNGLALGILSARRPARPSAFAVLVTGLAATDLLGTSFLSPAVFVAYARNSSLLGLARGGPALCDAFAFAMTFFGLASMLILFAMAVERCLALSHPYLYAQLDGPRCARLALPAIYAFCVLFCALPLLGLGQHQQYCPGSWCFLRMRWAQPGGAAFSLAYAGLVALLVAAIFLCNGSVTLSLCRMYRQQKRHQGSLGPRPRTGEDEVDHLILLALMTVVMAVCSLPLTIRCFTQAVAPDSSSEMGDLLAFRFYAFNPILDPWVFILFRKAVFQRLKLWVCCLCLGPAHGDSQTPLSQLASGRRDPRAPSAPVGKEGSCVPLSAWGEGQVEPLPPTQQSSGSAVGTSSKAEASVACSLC

inhibition (Prostacyclin receptor [1]) | IC50 (Prostacyclin receptor [2]) | IC50 (Homo sapiens) | SMILES
– | 10 nM | 57 nM | O=C(O)COc1cccc2c1CCCC2CCC(=O)NN(c1ccccc1)c1ccccc1 (stereo unspecified)
– | 210 nM | 250 nM | O=C(O)COc1cccc2c1CCCC2CCON=C(c1ccccc1)c1ccccc1 (stereo unspecified)
– | 2400 nM | 2400 nM | O=C(O)COc1cccc2c1CCC(CON=C(c1ccccc1)c1ccccc1)C2 (stereo unspecified)
– | 4200 nM | 11000 nM | O=C(O)COc1cccc2c1CCCC2CCCCOC(c1ccccc1)c1ccccc1 (stereo unspecified)

The remaining lines, values behind:

SMILES | inhibition (Prostacyclin receptor [1]) | IC50 (Prostacyclin receptor [2]) | IC50 (Homo sapiens)
O=C(O)COc1cccc2c1CCC(CCCOC(c1ccccc1)c1ccccc1)C2 (stereo unspecified) | 25% | > 10000 nM | > 20000 nM
O=C(O)COc1cccc2c1CCC(CC(=O)NN(c1ccccc1)c1ccccc1)C2 (stereo unspecified) | – | – | 150 nM
O=C(O)COc1cccc2c1CCCC2CCCOC(c1ccccc1)c1ccccc1 (stereo unspecified) | – | 460 nM | 450 nM
O=C(O)COc1cccc2c1CCC(CCOC(c1ccccc1)c1ccccc1)C2 (stereo unspecified) | – | 8000 nM | > 20000 nM
